These results are taken from patent publication US10604554B2, “Double-acylated GLP-1 derivatives” (Novo Nordisk A/S, priority 2012, dated 2020).

Series [1] in a line: in vivo. Conditions: male, Göttingen, minipig, iv.
The target in series [2] is T1, human GLP-1 receptor (Homo sapiens, UniProt P43220).
T1 construct: expressed in transfected cells; host or cells: BHK cells, clone FCW467-12A/KZ10-1 (parent line BHKTS13), further transfected with CRE luciferase
In words: In vitro potency (AlphaScreen cAMP, membranes). The series is classed as biochemical. The note with it: cAMP formation in membranes from BHK467-12A cells expressing human GLP-1 receptor; read-out: In vitro potency (AlphaScreen) EC50. The method in brief:
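AlphaScreen competition read-out (anti-cAMP acceptor beads vs biotinylated cAMP, 3 h room temperature) quantified cAMP made by human GLP-1 receptor membranes, 6 μg/well, from stably transfected BHK467-12A cells. Buffer pH 7.4 contained 1 mM ATP, 1 μM GTP, 0.5 mM IBMX and 0.1% BSA; cAMP standard curve included.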

The nature of series [3]: in vivo. Conditions: male, Sprague Dawley, rat, iv.
Protocol: The purpose of this Example is to investigate half-life in vivo in rat.
In vivo pharmacokinetic studies in rats were performed with the GLP-1 derivatives of a number of the Example compounds, as described in the following.
Male Sprague Dawley rats of same age with a body weight of approximately 400 g were obtained from Taconic (Denmark) and assigned to the treatments by simple randomisation on body weight, approximately 4 rats per group.
The GLP-1 derivatives (approximately 6 nmol/ml) were dissolved in 50 mM sodium phosphate, 145 mM sodium chloride, 0.05% tween 80, pH 7.4. Intravenous injections (1.0 ml/kg) of the compounds were given with a syringe in the tail vein of conscious rats. Blood was sampled from vena sublingualis for 5 days post dosing. Blood samples (200 μl) were collected in EDTA buffer (8 mM) and then centrifuged at 4° C. and 10000 G for 5 minutes. Plasma samples were kept at −20° C. until analyzed for plasma concentration of the respective GLP-1 compound.
The donor beads were coated with streptavidin, while acceptor beads were conjugated with a monoclonal antibody recognising a mid-/C-terminal epitope of the peptide. Another monoclonal antibody, specific for the N-terminus, was biotinylated. The three reactants were combined with the analyte and formed a two-sited immuno-complex. Illumination of the complex released singlet oxygen atoms from the donor beads, which were channeled into the acceptor beads and triggered chemiluminescence which was measured in an Envision plate reader. The amount of light was proportional to the concentration of the compound.
Plasma concentration-time profiles were analyzed using Phoenix WinNonLin ver. 6.2, Pharsight Inc., Mountain View, Calif., USA), and the half-life (T1/2) calculated using individual plasma concentration-time profiles from each animal.
Series [4] deals with Landrace Yorkshire Duroc (LYD) pigs. As to the kind of experiment: Pharmacodynamic (PD) study in pigs, food intake. The series is classed as in vivo, pig. The note with it: single s.c. dose 3.0 nmol/kg; for PD in pig, food intake (% of vehicle) for hours 0-24: 0-24 h; for PD in pig, food intake (% of vehicle) for hours 24-48: 24-48 h. As for the experimental part:
The purpose of this experiment was to investigate the effect of a couple of Example compounds on food intake in pigs. This was done in a pharmacodynamic (PD) study as described below, in which food intake was measured from 1 to 4 days after administration of a single dose of the GLP-1 derivative, as compared to a vehicle-treated control group.
Female Landrace Yorkshire Duroc (LYD) pigs, approximately 3 months of age, weighing approximately 30-35 kg were used (n=3-4 per group). The animals were housed in a group for approximately 1 week during acclimatisation to the animal facilities. During the experimental period the animals were placed in individual pens at least 2 days before dosing and during the entire experiment for measurement of individual food intake. The animals were fed ad libitum with pig fodder (Svinefoder Danish Top) at all times both during the acclimatisation and the experimental period. Food intake was monitored on line by logging the weight of fodder every 15 minutes. The system used was Mpigwin (Ellegaard Systems, Faaborg, Denmark).
The phosphate buffer serves as vehicle. Animals are dosed with a single subcutaneous dose of the GLP-1 derivative or vehicle (dose volume 0.025 ml/kg) on the morning of day 1, and food intake is measured for 1 day after dosing. On the last day of each study, 1-4 days after dosing, a blood sample for measurement of plasma exposure of the GLP-1 derivative is taken from the heart in anaesthetised animals. The animals are thereafter euthanised with an intra-cardial overdose of pentobarbitone.
Food intake is calculated as mean±SEM food intake in 24 h intervals (0-24 h, 24-48 h, and 48-72 h). In Table 6 below the food intake is indicated as percentage of the food intake of the vehicle group in the same time interval (dosage 3.0 nmol/kg).
Statistical comparisons of the food intake in the 24 h intervals in the vehicle vs. GLP-1 derivative group are done using two-way-ANOVA repeated measures, followed by Bonferroni post-test.

T1 sequence (P43220 24-463): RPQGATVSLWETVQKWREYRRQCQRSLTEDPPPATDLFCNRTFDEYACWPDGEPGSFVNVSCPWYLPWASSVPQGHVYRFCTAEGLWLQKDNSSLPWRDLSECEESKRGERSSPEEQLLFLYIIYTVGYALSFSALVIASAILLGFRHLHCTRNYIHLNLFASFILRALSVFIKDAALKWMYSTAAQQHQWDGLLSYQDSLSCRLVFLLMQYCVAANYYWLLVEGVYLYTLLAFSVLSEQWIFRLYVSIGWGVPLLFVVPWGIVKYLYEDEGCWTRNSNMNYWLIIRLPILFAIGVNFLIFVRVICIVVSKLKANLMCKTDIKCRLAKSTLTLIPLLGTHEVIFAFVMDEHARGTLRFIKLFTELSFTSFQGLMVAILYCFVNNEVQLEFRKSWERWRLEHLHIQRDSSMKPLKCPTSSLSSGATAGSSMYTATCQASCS

As to `CC[C@H](C)[C@H](NC(=O)[C@H](Cc1ccccc1)NC(=O)[C@H](CCC(=O)O)NC(=O)[C@H](CCCCNC(=O)[C@@H](N)CCCCNC(=O)CC[C@H](NC(=O)CC[C@H](NC(=O)CC[C@H](NC(=O)CCCCCCCCCCCCCCC(=O)O)C(=O)O)C(=O)O)C(=O)O)NC(=O)[C@H](C)NC(=O)[C@H](C)NC(=O)[C@H](CCC(N)=O)NC(=O)CNC(=O)[C@H](CCC(=O)O)NC(=O)[C@H](CC(C)C)NC(=O)[C@H](Cc1ccc(O)cc1)NC(=O)[C@H](CO)NC(=O)[C@H](CO)NC(=O)[C@@H](NC(=O)[C@H](CC(=O)O)NC(=O)[C@H](CO)NC(=O)[C@@H](NC(=O)[C@H](Cc1ccccc1)NC(=O)[C@@H](NC(=O)CNC(=O)[C@H](CCC(=O)O)NC(=O)C(C)(C)NC(=O)[C@@H](N)Cc1c[nH]cn1)[C@@H](C)O)[C@@H](C)O)C(C)C)C(=O)N[C@@H](C)C(=O)N[C@@H](Cc1c[nH]c2ccccc12)C(=O)N[C@@H](CC(C)C)C(=O)N[C@H](C(=O)N[C@@H](CCCNC(=N)N)C(=O)NCC(=O)N[C@@H](CCCNC(=N)N)C(=O)N[C@@H](CCCCNC(=O)[C@@H](N)CCCCNC(=O)CC[C@H](NC(=O)CC[C@H](NC(=O)CC[C@H](NC(=O)CCCCCCCCCCCCCCC(=O)O)C(=O)O)C(=O)O)C(=O)O)C(=O)O)C(C)C` [Example 13, N^ε26-[(2S)-2-amino-6-[[(4S)-4-carboxy-4-[[(4S)-4-carboxy-4-[[(4S)-4-carboxy-4-(15-carboxypentadecanoylamino)butanoyl]amino]butanoyl]amino]butanoyl]amino]hexanoyl], N^ε37-[(2S)-2-amino-6-[[(4S)-4-carboxy-4-[[(4S)-4-carboxy-4-[[(4S)-4-carboxy-4-(15-carboxypentadecanoylamino)butanoyl]amino]butanoyl]amino]butanoyl]amino]hexanoyl]-[Aib^8,Arg^34,Lys^37]-GLP-1-(7-37)-peptide], the half-life is 93 h in series [1] and 31 h in series [3]. For the same molecule, the EC50 in series [2] was 0.385 nM.
Take `CC[C@H](C)[C@H](NC(=O)[C@H](Cc1ccccc1)NC(=O)[C@H](CCC(=O)O)NC(=O)[C@H](CCCCNC(=O)[C@@H](N)CCCCNC(=O)[C@@H](N)CCCCNC(=O)CC[C@H](NC(=O)CC[C@H](NC(=O)CCCCCCCCCCCCCCC(=O)O)C(=O)O)C(=O)O)NC(=O)[C@H](C)NC(=O)[C@H](C)NC(=O)[C@H](CCC(N)=O)NC(=O)CNC(=O)[C@H](CCC(=O)O)NC(=O)[C@H](CC(C)C)NC(=O)[C@H](Cc1ccc(O)cc1)NC(=O)[C@H](CO)NC(=O)[C@H](CO)NC(=O)[C@@H](NC(=O)[C@H](CC(=O)O)NC(=O)[C@H](CO)NC(=O)[C@@H](NC(=O)[C@H](Cc1ccccc1)NC(=O)[C@@H](NC(=O)CNC(=O)[C@H](CCC(=O)O)NC(=O)C(C)(C)NC(=O)[C@@H](N)Cc1c[nH]cn1)[C@@H](C)O)[C@@H](C)O)C(C)C)C(=O)N[C@@H](C)C(=O)N[C@@H](Cc1c[nH]c2ccccc12)C(=O)N[C@@H](CC(C)C)C(=O)N[C@H](C(=O)N[C@@H](CCCNC(=N)N)C(=O)NCC(=O)N[C@@H](CCCNC(=N)N)C(=O)N[C@@H](CCCCNC(=O)[C@@H](N)CCCCNC(=O)[C@@H](N)CCCCNC(=O)CC[C@H](NC(=O)CC[C@H](NC(=O)CCCCCCCCCCCCCCC(=O)O)C(=O)O)C(=O)O)C(=O)O)C(C)C` [Example 12, N^ε26-[(2S)-2-amino-6-[[(2S)-2-amino-6-[[(4S)-4-carboxy-4-[[(4S)-4-carboxy-4-(15-carboxypentadecanoylamino)butanoyl]amino]butanoyl]amino]hexanoyl]amino]hexanoyl], N^ε37-[(2S)-2-amino-6-[[(2S)-2-amino-6-[[(4S)-4-carboxy-4-[[(4S)-4-carboxy-4-(15-carboxypentadecanoylamino)butanoyl]amino]butanoyl]amino]hexanoyl]amino]hexanoyl]-[Aib^8,Arg^34, Lys^37]-GLP-1-(7-37)-peptide]: the figures for the half-life in series [1] and in series [3] were 109 h and 28 h, respectively. The concentration giving a half-maximal response (EC50) in series [2] worked out at 0.227 nM.
`CC[C@H](C)[C@H](NC(=O)[C@H](Cc1ccccc1)NC(=O)[C@H](CCC(=O)O)NC(=O)[C@H](CCCCNC(=O)[C@@H](N)CCCCNC(=O)COCCOCCNC(=O)COCCOCCNC(=O)CC[C@H](NC(=O)CCCCCCCCCCCCC(=O)O)C(=O)O)NC(=O)[C@H](C)NC(=O)[C@H](C)NC(=O)[C@H](CCC(N)=O)NC(=O)CNC(=O)[C@H](CCC(=O)O)NC(=O)[C@H](CC(C)C)NC(=O)[C@H](Cc1ccc(O)cc1)NC(=O)[C@H](CO)NC(=O)[C@H](CO)NC(=O)[C@@H](NC(=O)[C@H](CC(=O)O)NC(=O)[C@H](CO)NC(=O)[C@@H](NC(=O)[C@H](Cc1ccccc1)NC(=O)[C@@H](NC(=O)CNC(=O)[C@H](CCC(=O)O)NC(=O)C(C)(C)NC(=O)[C@@H](N)Cc1c[nH]cn1)[C@@H](C)O)[C@@H](C)O)C(C)C)C(=O)N[C@@H](C)C(=O)N[C@@H](Cc1c[nH]c2ccccc12)C(=O)N[C@@H](CC(C)C)C(=O)N[C@H](C(=O)N[C@@H](CCCNC(=N)N)C(=O)NCC(=O)N[C@@H](CCCNC(=N)N)C(=O)N[C@@H](CCCCNC(=O)[C@@H](N)CCCCNC(=O)COCCOCCNC(=O)COCCOCCNC(=O)CC[C@H](NC(=O)CCCCCCCCCCCCC(=O)O)C(=O)O)C(=O)O)C(C)C` [Example 19, N^ε26-[(2S)-2-amino-6-[[2-[2-[2-[[2-[2-[2-[[(4S)-4-carboxy-4-(13-carboxytridecanoylamino)butanoyl]amino]ethoxy]ethoxy]acetyl]amino]ethoxy]ethoxy]acetyl]amino]hexanoyl], N^ε37-[(2S)-2-amino-6-[[2-[2-[2-[[2-[2-[2-[[(4S)-4-carboxy-4-(13-carboxytridecanoylamino)butanoyl]amino]ethoxy]ethoxy]acetyl]amino]ethoxy]ethoxy]acetyl]amino]hexanoyl]-[Aib^8,Arg^34,Lys^37]-GLP-1-(7-37)-peptide]: in series [4], the “PD in pig, food intake (% of vehicle) for hours 0-24” value is 52 % of vehicle and the “PD in pig, food intake (% of vehicle) for hours 24-48” value is listed as 64 % of vehicle. Also, the half-life in series [1] was 56 h. Besides, the EC50 in series [2] amounted to 0.057 nM. For the same molecule, in series [3], the half-life was 13 h.
As to `CC[C@H](C)[C@H](NC(=O)[C@H](Cc1ccccc1)NC(=O)[C@H](CCC(=O)O)NC(=O)[C@H](CCCCNC(=O)[C@@H](N)CCCCNC(=O)COCCOCCNC(=O)COCCOCCNC(=O)CC[C@H](NC(=O)CCCCCCCCCCCCCCC(=O)O)C(=O)O)NC(=O)[C@H](C)NC(=O)[C@H](C)NC(=O)[C@H](CCC(N)=O)NC(=O)CNC(=O)[C@H](CCC(=O)O)NC(=O)[C@H](CC(C)C)NC(=O)[C@H](Cc1ccc(O)cc1)NC(=O)[C@H](CO)NC(=O)[C@H](CO)NC(=O)[C@@H](NC(=O)[C@H](CC(=O)O)NC(=O)[C@H](CO)NC(=O)[C@@H](NC(=O)[C@H](Cc1ccccc1)NC(=O)[C@@H](NC(=O)CNC(=O)[C@H](CCC(=O)O)NC(=O)C(C)(C)NC(=O)[C@@H](N)Cc1c[nH]cn1)[C@@H](C)O)[C@@H](C)O)C(C)C)C(=O)N[C@@H](C)C(=O)N[C@@H](Cc1c[nH]c2ccccc12)C(=O)N[C@@H](CC(C)C)C(=O)N[C@H](C(=O)N[C@@H](CCCNC(=N)N)C(=O)NCC(=O)N[C@@H](CCCNC(=N)N)C(=O)N[C@@H](CCCCNC(=O)[C@@H](N)CCCCNC(=O)COCCOCCNC(=O)COCCOCCNC(=O)CC[C@H](NC(=O)CCCCCCCCCCCCCCC(=O)O)C(=O)O)C(=O)O)C(C)C` [Example 10, N^ε26-[(2S)-2-amino-6-[[2-[2-[2-[[2-[2-[2-[[(4S)-4-carboxy-4-(15-carboxypentadecanoylamino)butanoyl]amino]ethoxy]ethoxy]acetyl]amino]ethoxy]ethoxy]acetyl]amino]hexanoyl], N^ε37-[(2S)-2-amino-6-[[2-[2-[2-[[2-[2-[2-[[(4S)-4-carboxy-4-(15-carboxypentadecanoylamino)butanoyl]amino]ethoxy]ethoxy]acetyl]amino]ethoxy]ethoxy]acetyl]amino]hexanoyl]-[Aib^8,Arg^34,Lys^37]-GLP-1-(7-37)-peptide], in series [4], the “PD in pig, food intake (% of vehicle) for hours 0-24” value is 105 % of vehicle and the “PD in pig, food intake (% of vehicle) for hours 24-48” value is 104 % of vehicle. In series [1], the half-life is 97 h. Further, in series [2], the EC50 was 0.492 nM. The half-life in series [3] is 28 h.
